The source made the active and inactive calls.
Columns and labels:
[1] = tested on: Caov-4; assay: Growth inhibition of human Caov4 cells incubated for 48 hrs by MTT assay; format: functional, cell-based
[2] = organism: Homo sapiens; assay: Growth inhibition of human ES2 cells incubated for 48 hrs by MTT assay; format: functional
[3] = tested on: Caov-3 cell line; assay: Growth inhibition of human Caov3 cells incubated for 48 hrs by MTT assay; format: functional, cell-based

Measured: growth inhibition (GI)

Sc1ccccc1COCc1cn(-c2c(Cl)cc(Cl)cc2Cl)nn1
active: all assays above

Fc1ccc(-n2cc(COCc3ccccc3S)nn2)c(F)c1
active: all assays above
